In US9796733B2, “Imidazo-pyrazine derivatives useful as soluble guanylate cyclase activators” (Merck Sharp & Dohme Corp., priority 2014, dated 2017) one finds Emax and EC50 data, which are given here for 21 compounds.

The assay deals with T1, sGC α1/β1 heterodimer (Homo sapiens, UniProt Q02108+Q02153).
T1 construct: expressed in transfected cells; host or cells: CHO-K1 (clone #7, CHO-K1/sGC)
T1 sequence (Q02108 1-690): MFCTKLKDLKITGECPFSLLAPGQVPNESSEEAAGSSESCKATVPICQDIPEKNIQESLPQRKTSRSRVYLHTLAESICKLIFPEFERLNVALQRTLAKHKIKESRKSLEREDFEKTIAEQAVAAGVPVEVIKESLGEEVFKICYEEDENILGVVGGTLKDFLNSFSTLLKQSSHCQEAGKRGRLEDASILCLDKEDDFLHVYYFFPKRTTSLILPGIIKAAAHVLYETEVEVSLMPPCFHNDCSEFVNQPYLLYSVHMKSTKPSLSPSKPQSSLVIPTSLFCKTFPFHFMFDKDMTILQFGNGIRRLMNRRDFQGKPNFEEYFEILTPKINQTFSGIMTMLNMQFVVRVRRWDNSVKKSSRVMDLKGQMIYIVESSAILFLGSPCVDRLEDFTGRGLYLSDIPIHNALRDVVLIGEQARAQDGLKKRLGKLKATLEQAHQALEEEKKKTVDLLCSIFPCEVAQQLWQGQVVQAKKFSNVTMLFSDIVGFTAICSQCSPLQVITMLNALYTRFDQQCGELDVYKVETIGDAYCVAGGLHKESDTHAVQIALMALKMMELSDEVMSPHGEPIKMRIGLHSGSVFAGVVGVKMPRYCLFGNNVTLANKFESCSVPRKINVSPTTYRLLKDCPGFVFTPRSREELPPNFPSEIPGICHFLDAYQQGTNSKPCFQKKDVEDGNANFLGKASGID
T1 sequence (Q02153 1-619): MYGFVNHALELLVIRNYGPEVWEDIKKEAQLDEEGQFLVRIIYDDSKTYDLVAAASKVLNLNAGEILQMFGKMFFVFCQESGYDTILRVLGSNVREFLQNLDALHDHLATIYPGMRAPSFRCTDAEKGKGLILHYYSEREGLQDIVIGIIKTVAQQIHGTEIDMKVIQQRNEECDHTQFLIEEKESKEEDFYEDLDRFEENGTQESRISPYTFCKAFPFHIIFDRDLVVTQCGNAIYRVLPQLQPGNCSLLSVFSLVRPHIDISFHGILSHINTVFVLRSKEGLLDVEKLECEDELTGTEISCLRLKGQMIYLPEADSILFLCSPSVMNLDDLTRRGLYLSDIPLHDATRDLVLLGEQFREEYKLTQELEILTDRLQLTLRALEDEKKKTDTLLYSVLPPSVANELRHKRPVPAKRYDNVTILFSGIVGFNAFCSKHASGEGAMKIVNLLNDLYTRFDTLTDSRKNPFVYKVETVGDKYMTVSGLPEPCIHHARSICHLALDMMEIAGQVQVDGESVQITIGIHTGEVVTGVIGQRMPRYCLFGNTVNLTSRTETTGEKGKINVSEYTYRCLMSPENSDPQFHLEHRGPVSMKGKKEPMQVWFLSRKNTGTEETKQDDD
Kind of assay: Cell-based sGC functional assay (CASA assay): cGMP generation in CHO-K1/sGC cells, HTRF detection. The settings on record: for Emax: CHO-K1, percent activation relative to standard Compound A in CHO-K1/sGC cells, read-out: % Act.; for EC50: inflection point (IP) of cGMP generation in CHO-K1/sGC cells, 4P fit, activity expressed as percentage of Compound A. In a few lines: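 cGMP was quantified by HTRF after 1 hr, 37° C exposure of thawed CHO-K1 cells expressing sGC α1/β1 to compound, with or without 1 μM DETA-NO. IBMX (0.5 mM) blocked cGMP breakdown, and DMSO was 2.5% final. Percent of standard Compound A's maximal cGMP was fitted (4P) for inflection point.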

What is called EC50 is the midpoint of the concentration-response curve. For the compound `Cc1nnc(C2(C)C(=O)Nc3nc(-c4cn5ccnc5c(CCC(F)(F)C(F)(F)F)n4)nc(N)c32)s1` (stereo not drawn) [Example 58A, 4-amino-5-methyl-5-(5-methyl-1,3,4-thiadiazol-2-yl)-2-(8-(3,3,4,4,4-pentafluorobutyl)imidazo[1,2-a]pyrazin-6-yl)-5H-pyrrolo[2,3-d]pyrimidin-6(7H)-one], the Emax worked out at 93% and the response was half-maximal at 636 nM (EC50).
Taken in the same sequence, the figures for `CC(C)n1cc(C2(C)C(=O)Nc3nc(-c4cn5ccnc5c(Cc5ccc(F)cc5)n4)nc(N)c32)nn1` (stereo not drawn) [Example 63A, 4-Amino-2-(8-(4-fluorobenzyl)imidazo[1,2-a]pyrazin-6-yl)-5-(1-isopropyl-1H-1,2,3-triazol-4-yl)-5-methyl-5H-pyrrolo[2,3-d]pyrimidin-6(7H)-one] were 99% and 109 nM.
As to `CCn1cc(C2(C)C(=O)Nc3nc(-c4cn5ccnc5c(Cc5ccc(F)cc5)n4)nc(N)c32)nn1` (stereo not drawn) [Example 64A, 4-amino-5-(1-ethyl-1H-1,2,3-triazol-4-yl)-2-(8-(4-fluorobenzyl)imidazo[1,2-a]pyrazin-6-yl)-5-methyl-5H-pyrrolo[2,3-d]pyrimidin-6(7H)-one], the Emax stood at 115% and the EC50 stood at 196 nM.
Taken in the same sequence, the figures for `Cn1cc(C2(C)C(=O)Nc3nc(-c4cn5ccnc5c(Cc5ccc(F)cc5)n4)nc(N)c32)nn1` (stereo not drawn) [Example 65A, 4-amino-2-(8-(4-fluorobenzyl)imidazo[1,2-a]pyrazin-6-yl)-5-methyl-5-(1-methyl-1H-1,2,3-triazol-4-yl)-5H-pyrrolo[2,3-d]pyrimidin-6(7H)-one] were 108% and 256 nM.
For `C#CC1(C)C(=O)Nc2nc(-c3cn4ccnc4c(CCC(F)(F)C(F)(F)F)n3)nc(N)c21` (stereo not drawn) [Example 66A, 4-amino-5-ethynyl-5-methyl-2-(8-(3,3,4,4,4-pentafluorobutyl)imidazo[1,2-a]pyrazin-6-yl)-5H-pyrrolo[2,3-d]pyrimidin-6(7H)-one] the same measures were 127% and 252 nM.
For `CC(C)n1cc(C2(C)C(=O)Nc3nc(-c4cn5ccnc5c(CCC(F)(F)C(F)(F)F)n4)nc(N)c32)nn1` (stereo not drawn) [Example 67A, 4-amino-5-(1-isopropyl-1H-1,2,3-triazol-4-yl)-5-methyl-2-(8-(3,3,4,4,4-pentafluorobutyl)imidazo[1,2-a]pyrazin-6-yl)-5H-pyrrolo[2,3-d]pyrimidin-6(7H)-one] the same measures were 120% and 746 nM.
For the compound `CC1(C)C(=O)Nc2nc(-c3cn4ccnc4c(Cc4ccc(F)cc4)n3)nc(N)c21` [Example 72, 4-amino-2-(8-(4-fluorobenzyl)imidazo[1,2-a]pyrazin-6-yl)-5,5-dimethyl-5H-pyrrolo[2,3-d]pyrimidin-6(7H)-one], the Emax was 126% and the response was half-maximal at 342 nM (EC50).
Taken in the same sequence, the figures for `CC1(C)C(=O)Nc2nc(-c3cn4ccnc4c(Cc4ccc(F)c(F)c4)n3)nc(N)c21` [Example 73, 4-amino-2-(8-(3,4-difluorobenzyl)imidazo[1,2-a]pyrazin-6-yl)-5,5-dimethyl-5H-pyrrolo[2,3-d]pyrimidin-6(7H)-one] were 111% and 44 nM.
Taken in the same sequence, the figures for `CC1(C)C(=O)Nc2nc(-c3cn4ccnc4c(Cc4cccc(Cl)c4)n3)nc(N)c21` [Example 74, 4-amino-2-(8-(3-chlorobenzyl)imidazo[1,2-a]pyrazin-6-yl)-5,5-dimethyl-5H-pyrrolo[2,3-d]pyrimidin-6(7H)-one] were 94% and 138 nM.
For `CC1(C)C(=O)Nc2nc(-c3cn4cc(C(F)(F)F)nc4c(Cc4cccc(F)c4)n3)nc(N)c21` [Example 75, 4-amino-2-(8-(3-fluorobenzyl)-2-(trifluoromethyl)imidazo[1,2-a]pyrazin-6-yl)-5,5-dimethyl-5H-pyrrolo[2,3-d]pyrimidin-6(7H)-one] the same measures were 99% and 862 nM.
Turning to `CCC1(CC)C(=O)Nc2nc(-c3cn4ccnc4c(Cc4ccccc4)n3)nc(N)c21` [Example 79, 4-amino-2-(8-benzylimidazo[1,2-a]pyrazin-6-yl)-5,5-diethyl-5H-pyrrolo[2,3-d]pyrimidin-6(7H)-one], the Emax stood at 112% and the EC50 was 36 nM.
For `CC(C)C1(C)C(=O)Nc2nc(-c3cn4ccnc4c(Cc4ccccc4)n3)nc(N)c21` (stereo not drawn) [Example 80A, 4-amino-2-(8-benzylimidazo[1,2-a]pyrazin-6-yl)-5-isopropyl-5-methyl-5H-pyrrolo[2,3-d]pyrimidin-6(7H)-one] the same measures were 125% and 66 nM.
Regarding `CC1(C2CC2)C(=O)Nc2nc(-c3cn4ccnc4c(Cc4ccccc4)n3)nc(N)c21` (stereo not drawn) [Example 82A, 4-amino-2-(8-benzylimidazo[1,2-a]pyrazin-6-yl)-5-cyclopropyl-5-methyl-5H-pyrrolo[2,3-d]pyrimidin-6(7H)-one], the Emax was 120% and the response was half-maximal at 90 nM (EC50).
For `CCC1(C)C(=O)Nc2nc(-c3cn4ccnc4c(Cc4ccccc4)n3)nc(N)c21` (stereo not drawn) [Example 84A, 4-amino-2-(8-benzylimidazo[1,2-a]pyrazin-6-yl)-5-ethyl-5-methyl-5H-pyrrolo[2,3-d]pyrimidin-6(7H)-one] the same measures were 90% and 58 nM.
For `CC1(C)C(=O)Nc2nc(-c3cn4ccnc4c(CCC(F)(F)C(F)(F)F)n3)nc(N)c21` [Example 87, 4-amino-5,5-dimethyl-2-(8-(3,3,4,4,4-pentafluorobutyl)imidazo [1,2-a]pyrazin-6-yl)-5H-pyrrolo[2,3-d]pyrimidin-6(7H)-one] the same measures were 54% and 399 nM.
For `Cn1cc(C2(C)C(=O)Nc3nc(-c4cn5ccnc5c(Cc5ccc(F)cc5)n4)nc(N)c32)cn1` (stereo not drawn) [Example 88B, 4-amino-2-(8-(4-fluorobenzyl)imidazo[1,2-a]pyrazin-6-yl)-5-methyl-5-(1-methyl-1H-pyrazol-4-yl)-5H-pyrrolo[2,3-d]pyrimidin-6(7H)-one] the same measures were 79% and 224 nM.
As for `CC1(c2ccc(F)cc2)C(=O)Nc2nc(-c3cn4ccnc4c(Cc4ccccc4F)n3)nc(N)c21` (stereo not drawn) [Example 89A, 4-amino-2-(8-(2-fluorobenzyl)imidazo[1,2-a]pyrazin-6-yl)-5-(4-fluorophenyl)-5-methyl-5H-pyrrolo[2,3-d]pyrimidin-6(7H)-one], the Emax amounted to 141% and a half-maximal response (EC50) required 4 nM.
Turning to `CC1(c2ccc(F)cc2)C(=O)Nc2nc(-c3cn4ccnc4c(Cc4ccc(F)cc4)n3)nc(N)c21` (stereo not drawn) [Example 92A, 4-amino-2-(8-(4-fluorobenzyl)imidazo[1,2-a]pyrazin-6-yl)-5-(4-fluorophenyl)-5-methyl-5H-pyrrolo[2,3-d]pyrimidin-6(7H)-one], the Emax turned out to be 97% and the EC50 amounted to 9 nM.
As to `CC1(c2ccc(F)cc2)C(=O)Nc2nc(-c3cn4ccnc4c(Cc4ccccc4)n3)nc(N)c21` (stereo not drawn) [Example 93A, 4-amino-2-(8-benzylimidazo[1,2-a]pyrazin-6-yl)-5-(4-fluorophenyl)-5-methyl-5H-pyrrolo[2,3-d]pyrimidin-6(7H)-one], the Emax came out at 109% and the response was half-maximal at 12 nM (EC50).
For `CC1(c2ccc(F)cc2)C(=O)Nc2nc(-c3cn4ccnc4c(Cc4cccc(Cl)c4)n3)nc(N)c21` (stereo not drawn) [Example 94A, 4-amino-2-(8-(3-chlorobenzyl)imidazo[1,2-a]pyrazin-6-yl)-5-(4-fluorophenyl)-5-methyl-5H-pyrrolo[2,3-d]pyrimidin-6(7H)-one] the same measures were 108% and 5 nM.
For `CC1(c2ccc(Cl)cc2)C(=O)Nc2nc(-c3cn4ccnc4c(Cc4cccc(Cl)c4)n3)nc(N)c21` (stereo not drawn) [Example 95A, 4-amino-2-(8-(3-chlorobenzyl)imidazo[1,2-a]pyrazin-6-yl)-5-(4-chlorophenyl)-5-methyl-5H-pyrrolo[2,3-d]pyrimidin-6(7H)-one] the same measures were 109% and 4 nM.
